# Data as given in patent US7910755B2, “Stem cell expansion and uses” (priority 2004, dated 2011).
# Key:
# [1] = tested on: female BALB/cByJ mice, DTH response to topical oxazolone challenge; assay: Modulation of delayed type hypersensitivity (oxazolone ear challenge); format: in vivo; conditions: difference right minus left ear, 24 hours following oxazolone challenge; vehicle alone 0.225 mm
# Method: Modulation of delayed type hypersensitivity. The capacity of F1Cs to modulate delayed type hypersensitivity (DTH) is determined in mice. Groups of five female BALB/cByJ mice (20-25 grams) are anesthetized and 100 μL of a 3% solution of oxazolone is applied on day 0 to the shaved abdomen and dried. Seven days later, on day 7, the mice are challenged by applying 5 μL of oxazolone topically to each side of the right ear. The F1C (at about 20-100 mg/mL) in vehicle is administered by subcutaneous injection (2 mg/day) one time on day 6, 24 hours before the oxazolone challenge. The vehicle as a non-aqueous suspension of the F1C in, e.g., 2% benzyl alcohol w/v, 0.1% Brij 96 w/v and equal volumes of PEG 300 and propylene glycol.
# Dexamethasone in saline (0.2 mg/mL) is administered daily for 9 days (day −1 to 7), first dose 24 hours before sensitization, last dose at challenge by subcutaneous injection (0.01 mg/dose, 50 μl/injection). On Day 8, 24 hours following the oxazolone challenge, both the right and left ear thicknesses are measured using a micrometer caliper and the differences are determined. The differential ear thickness is measured as an indicator of the DTH response to topical oxazolone challenge. The DTH response is expressed as the difference in the thickness (mm) between the right and the left ears for each animal.
# [2] = tested on: lethally-irradiated female B6D2F1 mice; assay: Survival of lethally-irradiated mice (10 Gy total body irradiation, 137Cs); format: in vivo; conditions: groups of 12
# Method: Exposure of rodents to ionizing radiation exposure. The effect of selected F1Cs on survival of lethally-irradiated female B6D2F1 mice were compared to control animals treated with vehicle alone. The animals were exposed to 10 Gy of total body irradiation at 2.5 Gy/min using a ^137Cs source. […] For Group 4, test article was administered as a 50 μL volume, by intramuscular injection for three consecutive days. The formulation was a suspension containing 0.1% w/v carboxymethyl-cellulose, 0.9% w/v sodium chloride and 0.05% v/v phenol. The formulations were agitated to uniformly resuspend the F1C before syringing, and injected into animals within a few minutes of drawing into the syringe to prevent settling in the syringe.
# The groups of animals were treated as follows.
# [3] = tested on: Macaca mulatta (Rhesus monkey) exposed to 6 Gy γ-radiation
# Description: Treatment of whole body lethal radiation and characterization of mortality surrogate markers. Two groups of 10 Macaca mulatta (Rhesus monkey) were exposed to a 6 Gy dose of γ-radiation from a ^60Co source. This dose is an LD50/30 dose for this species. […] The age range was 1.75-5.0 years at the onset of treatment.
# Test article was an aqueous suspension in vehicle. The vehicle article consists of a solution of sodium chloride (0.9% w/v), carboxymethylcellulose (0.5% w/v), polysorbate 80 (2% v/v), benzalkonium chloride (0.02% v/v) and sodium phosphate (10 mM, pH 6.5). Immediately prior to drawing into a syringe, the test article formulation was briefly vortexed to uniformly distribute sedimented test article. Once drawn into a syringe, the test article was administered within 10 minutes. Just prior to injection, the syringe containing the test article was rotated end-over-end to uniformly disperse the compound.
# Whole body radiation. The animals were exposed to ionizing as follows. Dosimetry measurements using phantoms, the dose rate and duration of irradiation and the actual time of irradiation for each individual animal was recorded. Animals were fasted overnight prior to whole-body irradiation and fed upon return to the housing facility. Animals were transferred to the treatment facility in a transport vehicle with controlled environment. During transportation, each animal was individually housed in a stainless steel squeeze back cage. Temperature in the transport vehicle was automatically recorded every 5 minutes during transportation. Clinical signs were monitored immediately before and after transportation.
# The animals received a midline treatment dose of 600 cGy. The dose rate of the ^60Co gamma source was about 60 cGy per minute and the actual rate was recorded for each animal. To obtain a homogenous dose distribution, the radiation treatment was divided in two parts. First, the animal received half of the dose by anteroposterior irradiation. The second half of the dose was delivered by posteroanterior irradiation. Once the treatment was completed, animals were returned to the transport vehicle and transported to the housing facility. The radiation dose was calibrated using an acrylic phantom placed in the same experimental set up that was used for animal irradiation.
# The animals received the vehicle control once daily for five consecutive days by intramuscular injections. The first injection on day 1 was administered at 2-3 hours after irradiation. The dose volume was 0.15 mL/kg for all animals. The dose volume was evenly divided between two distinct sites (approximately 0.075 mL/kg per site). The actual volume delivered was calculated and adjusted based on each animal's body weight.
# During the pre-treatment period cage side observations of clinical signs were performed once daily. A detailed clinical examination was performed on all animals once prior to irradiation on day 1, day 9, weekly thereafter and at day 40 and 41. After radiation, the animals and clinical signs were observed twice a day during the protocol or as often as deemed necessary. Moribund animals were euthanized for humane reasons.
# [4] = day 6, 0.6 mg s.c. daily for 3 days
# [5] = day 7, 0.6 mg s.c. daily for 3 days
# [6] = day 12, 0.6 mg s.c. daily for 3 days
# [7] = day 21, 0.6 mg s.c. daily for 3 days
compound,measurement,setting,value
C[C@@H]1C[C@H]2[C@@H]3CCC4=CC(=O)C=C[C@]4(C)[C@@]3(F)[C@@H](O)C[C@]2(C)[C@@]1(O)C(=O)CO [dexamethasone],differential ear thickness (DTH response),[1],0.144 mm
"C[C@]12CC[C@H]3[C@@H](CC=C4C[C@@H](O)CC[C@@]43C)[C@@H]1CC[C@@H]2N [3β-hydroxy-17,7-aminoandrost-5-ene]",number of surviving animals,[2]; [4],12
same,number of surviving animals,[2]; [5],12
same,number of surviving animals,[2]; [6],12
same,number of surviving animals,[2]; [7],11
"C[C@]12CC[C@H]3[C@@H](CC=C4C[C@@H](O)CC[C@@]43C)[C@@H]1CC[C@@H]2O [3β,17β-dihydroxyandrost-5-ene]",number of surviving animals,"[2]; day 6, 0.6 mg i.m. daily for 3 days",12
same,number of surviving animals,[2]; [4],12
same,number of surviving animals,"[2]; day 6, 3.0 mg s.c. daily for 3 days",12
same,number of surviving animals,"[2]; day 7, 0.6 mg i.m. daily for 3 days",12
same,number of surviving animals,[2]; [5],11
same,number of surviving animals,"[2]; day 7, 3.0 mg s.c. daily for 3 days",12
same,number of surviving animals,"[2]; day 12, 0.6 mg i.m. daily for 3 days",11
same,number of surviving animals,[2]; [6],10
same,number of surviving animals,"[2]; day 12, 3.0 mg s.c. daily for 3 days",9
same,number of surviving animals,"[2]; day 21, 0.6 mg i.m. daily for 3 days",9
same,number of surviving animals,[2]; [7],7
same,number of surviving animals,"[2]; day 21, 3.0 mg s.c. daily for 3 days",7
same,number of animals having febrile severe neutropenia (>40.4° C. and absolute neutrophil count less than 500 cells/μL),"[3]; 15 mg/kg i.m. for 5 days, group of 10, at some time during the protocol",2
same,"days of severe thrombocytopenia (less than 20,000 platelets/μL) experienced collectively","[3]; 15 mg/kg i.m. for 5 days, group of 10, vehicle 51 days, p=0.009",32 days
same,median days of febrile severe neutropenia,"[3]; 15 mg/kg i.m. for 5 days, vehicle median 5 days, p=0.037",0 days
same,animals survived,"[3]; 15 mg/kg i.m. once per day for 5 days, 40 days",9 of 10
same,Mortality,"[3]; 15 mg/kg i.m. once per day for 5 days, control group 40%",10%
O=P1(N(CCCl)CCCl)NCCCO1 (centres unmarked) [cyclophosphamide],differential ear thickness (DTH response),[1],0.092 mm
